“And” between values parts separate entries of the source, which are not always exact repeats. Equal entries are not always repeated. Inconclusive results and toxic doses are left out.
System: P388 leukemia ip, CD2F1 mice, survival T/C
Assay: NCI In Vivo Anticancer Drug Screen. Data for tumor model P388 Leukemia (intraperitoneal) in CD2F1 (CDF1) mice
Conditions: endpoint: median survival time, higher = longer survival
Method in brief: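 Mice carrying the transplanted tumor received test compound or vehicle. Survival was recorded in each group, and the value is the treated-group measurement divided by that of the vehicle-treated control group.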

[1] = dose: 50.0 mg/kg/injection, schedule: Q01DX009 (ip), vehicle: other
[2] = dose: 100.0 mg/kg/injection, schedule: Q01DX009 (ip), vehicle: other
[3] = dose: 200.0 mg/kg/injection, schedule: Q01DX009 (ip), vehicle: other
[4] = dose: 50.0 mg/kg/injection, schedule: Q01DX009 (ip), vehicle: saline
[5] = dose: 100.0 mg/kg/injection, schedule: Q01DX009 (ip), vehicle: saline
[6] = dose: 200.0 mg/kg/injection, schedule: Q01DX009 (ip), vehicle: saline
[7] = dose: 50.0 mg/kg/injection, schedule: Q01DX005 (ip), vehicle: saline with Tween-80
[8] = dose: 100.0 mg/kg/injection, schedule: Q01DX005 (ip), vehicle: saline with Tween-80
[9] = dose: 200.0 mg/kg/injection, schedule: Q01DX005 (ip), vehicle: saline with Tween-80
[10] = dose: 50.0 mg/kg/injection, schedule: Q01DX005 (ip), vehicle: Klucel (hydroxypropylcellulose) (HPC)
[11] = dose: 100.0 mg/kg/injection, schedule: Q01DX005 (ip), vehicle: Klucel (hydroxypropylcellulose) (HPC)
[12] = dose: 200.0 mg/kg/injection, schedule: Q01DX005 (ip), vehicle: Klucel (hydroxypropylcellulose) (HPC)
[13] = dose: 50.0 mg/kg/injection, schedule: Q01DX009 (ip), vehicle: saline with Tween-80
[14] = dose: 50.0 mg/kg/injection, schedule: Q01DX001 (ip), vehicle: Klucel (hydroxypropylcellulose) (HPC)

O=C(O)C1CCC=CCC1
T/C [1]: 100 % of control | T/C [2]: 104 % of control | T/C [3]: 100 % of control

CN(C1=NC1(C)C)c1ccccc1
T/C [4]: 96 % of control | T/C [5]: 94 % of control | T/C [6]: 91 % of control

O=C(Nc1cccc(C(=O)Nc2ccc(C3=NCCN3)cc2)c1)c1ccc(C2=NCCN2)cc1
T/C (dose: 6.25 mg/kg/injection, schedule: Q01DX009 (ip), vehicle: saline): 118 % of control | T/C (dose: 6.25 mg/kg/injection, schedule: Q04DX003 (ip), vehicle: saline): 100 % of control | T/C (dose: 12.5 mg/kg/injection, schedule: Q01DX009 (ip), vehicle: saline): 118 % of control | T/C (dose: 12.5 mg/kg/injection, schedule: Q04DX003 (ip), vehicle: saline): 100 % of control | T/C (dose: 25.0 mg/kg/injection, schedule: Q04DX003 (ip), vehicle: saline): 100 % of control

COc1cc2c(c(OC)c1OC)-c1ccc(SC)c(=O)cc1[C@@H](NC(=O)CCl)CC2
T/C (dose: 0.03 mg/kg/injection, schedule: Q01DX009 (ip), vehicle: water): 124 % of control | T/C (dose: 0.4 mg/kg/injection, schedule: Q01DX009 (ip), vehicle: water): 155 % of control

COc1ccc2nc(NC(=O)Nc3ccc(Cc4ccc(NC(=O)Nc5nc6ccc(OC)cc6s5)cc4)cc3)sc2c1
T/C (dose: 50.0 mg/kg/injection, schedule: Q01DX009 (ip), vehicle: Klucel (hydroxypropylcellulose) (HPC)): 100 % of control | T/C (dose: 100.0 mg/kg/injection, schedule: Q01DX009 (ip), vehicle: Klucel (hydroxypropylcellulose) (HPC)): 94 % of control | T/C (dose: 200.0 mg/kg/injection, schedule: Q01DX009 (ip), vehicle: Klucel (hydroxypropylcellulose) (HPC)): 99 % of control

CCN(CC)CCSCCCN=c1c2ccc(Cl)cc2n(O)c2ccc(OC)nc12
T/C (dose: 50.0 mg/kg/injection, schedule: Q01DX009 (ip), vehicle: saline + alcohol): 115 % of control | T/C (dose: 100.0 mg/kg/injection, schedule: Q01DX009 (ip), vehicle: saline + alcohol): 112 % of control

Cc1sc([S-])n[n+]1-c1ccccc1
T/C (dose: 6.25 mg/kg/injection, schedule: Q01DX009 (ip), vehicle: distilled water + Tween-80): 93 % of control | T/C (dose: 12.5 mg/kg/injection, schedule: Q01DX009 (ip), vehicle: distilled water + Tween-80): 90 % of control | T/C (dose: 25.0 mg/kg/injection, schedule: Q01DX009 (ip), vehicle: distilled water + Tween-80): 96 % of control | T/C (dose: 50.0 mg/kg/injection, schedule: Q01DX009 (ip), vehicle: distilled water + Tween-80): 97 % of control | T/C (dose: 100.0 mg/kg/injection, schedule: Q01DX009 (ip), vehicle: distilled water + Tween-80): 110 % of control | T/C (dose: 200.0 mg/kg/injection, schedule: Q01DX009 (ip), vehicle: distilled water + Tween-80): 105 % of control

CN(C)c1ccc(C(=NNC(N)=S)c2ccc(N(C)C)cc2)cc1
T/C (dose: 12.5 mg/kg/injection, schedule: Q04DX003 (ip), vehicle: Klucel (hydroxypropylcellulose) (HPC)): 96 % of control | T/C (dose: 25.0 mg/kg/injection, schedule: Q04DX003 (ip), vehicle: Klucel (hydroxypropylcellulose) (HPC)): 105 % of control | T/C (dose: 50.0 mg/kg/injection, schedule: Q04DX003 (ip), vehicle: Klucel (hydroxypropylcellulose) (HPC)): 99 % of control and 108 % of control

CNc1ccc2c(c1)C(=O)c1c(C)n(C)c3cccc-2c13
T/C [7]: 98 % of control

O=C(NC1CCCCC1)O/N=C/c1ccccn1
T/C (dose: 50.0 mg/kg/injection, schedule: Q01DX001 (ip), vehicle: other): 95 % of control | T/C (dose: 100.0 mg/kg/injection, schedule: Q01DX001 (ip), vehicle: other): 95 % of control | T/C (dose: 200.0 mg/kg/injection, schedule: Q01DX001 (ip), vehicle: other): 100 % of control

Cn1c2ccccc2c2oc(CO)cc(=O)c21
T/C (dose: 60.0 mg/kg/injection, schedule: Q01DX005 (ip), vehicle: Klucel (hydroxypropylcellulose) (HPC)): 95 % of control | T/C (dose: 120.0 mg/kg/injection, schedule: Q01DX005 (ip), vehicle: Klucel (hydroxypropylcellulose) (HPC)): 89 % of control | T/C (dose: 240.0 mg/kg/injection, schedule: Q01DX005 (ip), vehicle: Klucel (hydroxypropylcellulose) (HPC)): 91 % of control

CC(CN(CC(=O)O)CC(=O)O)N(CC(=O)O)CC(=O)O.[Cl][Pd][Cl] (configuration not stated)
T/C (dose: 60.0 mg/kg/injection, schedule: Q01DX005 (ip), vehicle: saline): 94 % of control | T/C (dose: 120.0 mg/kg/injection, schedule: Q01DX005 (ip), vehicle: saline): 91 % of control

BrCc1cn(Cc2ccccc2)nn1
T/C [4]: 97 % of control | T/C [5]: 97 % of control

O=C1c2ccccc2C(=O)C1C(=Nc1ccccc1Br)c1ccccc1
T/C [7]: 99 % of control | T/C [8]: 103 % of control | T/C [9]: 103 % of control

NC(=O)N=Nc1ccc(Br)cc1
T/C [7]: 102 % of control | T/C [8]: 102 % of control | T/C [9]: 93 % of control

CCCc1c(Cl)[nH]c(=O)n(C)c1=O
T/C [10]: 111 % of control | T/C [11]: 111 % of control | T/C [12]: 97 % of control

O=C1CC2C3C1N(c1ccc(Cl)cc1)C1(Nc4ccc(Cl)cc4)C(=O)CC(C31)N2c1ccc(Cl)cc1 (configuration not stated)
T/C (dose: 7.5 mg/kg/injection, schedule: Q01DX005 (ip), vehicle: Klucel (hydroxypropylcellulose) (HPC)): 104 % of control | T/C (dose: 15.0 mg/kg/injection, schedule: Q01DX005 (ip), vehicle: Klucel (hydroxypropylcellulose) (HPC)): 101 % of control | T/C (dose: 30.0 mg/kg/injection, schedule: Q01DX005 (ip), vehicle: Klucel (hydroxypropylcellulose) (HPC)): 92 % of control

CC(C)C1C(=O)NC(c2ccc(N)cc2)c2ccccc21 (configuration not stated)
T/C (dose: 12.5 mg/kg/injection, schedule: Q01DX009 (ip), vehicle: saline with Tween-80): 104 % of control | T/C (dose: 25.0 mg/kg/injection, schedule: Q01DX009 (ip), vehicle: saline with Tween-80): 94 % of control | T/C [13]: 93 % of control | T/C [4]: 105 % of control | T/C [6]: 90 % of control

CC1=C(O)C(=O)C(C)=C(O)C1=O
T/C (dose: 12.5 mg/kg/injection, schedule: Q01DX001 (ip), vehicle: Klucel (hydroxypropylcellulose) (HPC)): 112 % of control | T/C (dose: 25.0 mg/kg/injection, schedule: Q01DX001 (ip), vehicle: Klucel (hydroxypropylcellulose) (HPC)): 112 % of control | T/C [14]: 111 % of control

COc1ccc(/C=C/C(C)=N/NC(N)=O)cc1OC
T/C [7]: 102 % of control | T/C [8]: 102 % of control | T/C [9]: 106 % of control

S=c1nn[nH]n1-c1ccccc1
T/C (dose: 25.0 mg/kg/injection, schedule: Q04DX003 (ip), vehicle: saline with Tween-80): 100 % of control | T/C [13]: 110 % of control | T/C (dose: 50.0 mg/kg/injection, schedule: Q04DX003 (ip), vehicle: saline with Tween-80): 100 % of control | T/C (dose: 100.0 mg/kg/injection, schedule: Q01DX009 (ip), vehicle: saline with Tween-80): 110 % of control | T/C (dose: 100.0 mg/kg/injection, schedule: Q04DX003 (ip), vehicle: saline with Tween-80): 100 % of control and 91 % of control

CC(=O)Nc1ccc(S(=O)(=O)Oc2noc3ccc(Br)cc23)cc1
T/C [10]: 98 % of control | T/C [11]: 97 % of control | T/C [12]: 90 % of control

NC(=O)C(CC(=O)O)NC(=O)OCc1ccccc1 (configuration not stated)
T/C (dose: 4.0 mg/kg/injection, schedule: Q01DX009 (ip), vehicle: other): 100 % of control | T/C (dose: 8.0 mg/kg/injection, schedule: Q01DX009 (ip), vehicle: other): 114 % of control | T/C (dose: 16.0 mg/kg/injection, schedule: Q01DX009 (ip), vehicle: other): 101 % of control | T/C (dose: 32.0 mg/kg/injection, schedule: Q01DX009 (ip), vehicle: other): 98 % of control | T/C [1]: 96 % of control | T/C (dose: 64.0 mg/kg/injection, schedule: Q01DX009 (ip), vehicle: other): 91 % of control | T/C [2]: 90 % of control | T/C (dose: 150.0 mg/kg/injection, schedule: Q01DX009 (ip), vehicle: other): 109 % of control | T/C [3]: 105 % of control | T/C (dose: 400.0 mg/kg/injection, schedule: Q01DX009 (ip), vehicle: other): 113 % of control

Cc1ccc(OP(=O)(Oc2ccc(C)cc2)Oc2ccc(C)cc2)cc1.Cc1ccc(OP(=O)(Oc2ccc(C)cc2)Oc2ccc(C)cc2)cc1.Cc1ccc(OP(=O)(Oc2ccc(C)cc2)Oc2ccc(C)cc2)cc1.Cc1ccc(OP(=O)(Oc2ccc(C)cc2)Oc2ccc(C)cc2)cc1.[Cu+2].[O-][Cl+3]([O-])([O-])O
T/C [14]: 96 % of control | T/C (dose: 100.0 mg/kg/injection, schedule: Q01DX001 (ip), vehicle: Klucel (hydroxypropylcellulose) (HPC)): 94 % of control | T/C (dose: 200.0 mg/kg/injection, schedule: Q01DX001 (ip), vehicle: Klucel (hydroxypropylcellulose) (HPC)): 92 % of control
